Assay [1] deals with T1, human VR1 (Homo sapiens, UniProt Q8NER1).
T1 construct: A complete length cDNA coding for human VR1 was obtained; expressed in transfected cells
Briefly: Receptor binding assay ([3H]RTX) using membrane of human VR1 stably expressing HEK 293 cell. As to conditions: [3H]RTX binding, VR1/HEK 293 membrane sample, 37° C. 60 minutes; read-out: VR1 receptor binding inhibitory activity, IC50 value. As to the method: 1. Receptor Binding Assay Using VR1 Stably Expressing Cell
1) Construction of Human VR1 Stably Expressing Cell
A complete length cDNA coding for human VR1 was obtained by the following method. Firstly, a first strand cDNA was synthesized by carrying out reverse transcription of human brain mRNA using a reverse transcriptase. Next, PCR by Hot Start method was carried out using this first strand cDNA as the template and using Taq DNA polymerase. In the aforementioned PCR, an oligonucleotide consisting of the 424th to 443rd nucleotide sequence of a conventionally known human VR1 cDNA sequence (Genbank AJ277028.1) was used as the sense primer, and an oligonucleotide consisting of a complementary chain sequence of the 3082nd to 3100th nucleotide sequence as the antisense primer, and thermal denaturation was firstly carried out at 98° C. (1 minute) and then a cycle consisting of 98° C. (15 seconds)/63° C. (30 seconds)/72° C. (3 minutes) was repeated 35 times.
Cloning of the thus amplified DNA fragment was carried out using pCR-XL-TOPO vector (TOPO XL PCR Cloning Kit; Invitrogen, USA). The human VR1-cDNA alone was isolated by digesting the resulting plasmid DNA with a restriction enzyme EcoRI and then integrated into pcDNA3.1 (+) plasmid (Invitrogen, USA). In this case, the above genetic engineering operations were carried out by conventionally known methods (Sambrook, J. et al., “Molecular Cloning—A Laboratory Manual”, Cold Spring Harbor Laboratory Press, NY, 2001) and in accordance with the instructions attached to respective reagents.
Next, the resulting pcDNA3.1-VR1 was transferred into HEK 293 cell. By selecting VR1/HEK 293 cells using DMEM medium (Invitrogen, USA) containing 10% FBS, 100 μg/ml streptomycin, 100 U/ml penicillin and 400 μg/ml G 418, a receptor stably expressing cell strain was prepared. The receptor stably expressing cell was sub-cultured in the medium described in the above.
2) Preparation of Membrane Sample
The VR1/HEK 293 cell described in the above was mass-produced in a dish and then, after discarding the medium, scraped out after adding ice-cooled PBS. Centrifugation was carried out at 1000 rpm and at 4° C. for 10 minutes, and the resulting residue was homogenized by adding a homogenization buffer (25 mM Tris-HCl, 220 mM sucrose, pH 7.4) and centrifuged at 2,200 rpm and at 4° C. for 10 minutes. The resulting supernatant was centrifuged at 30,000×g and at 4° C. for 20 minutes and the resulting residue was mixed with 25 mM Tris-HCl, pH 7.4, and centrifuged at 30,000×g and at 4° C. for 20 minutes, and this operation was repeated twice. The resulting residue was suspended in 25 mM Tris-HCl, pH 7.4, and the protein concentration was determined using a protein assay staining solution (Bio-Rad, USA). The thus prepared membrane sample was stored at −80° C.
3) Receptor Binding Assay
This was carried out by modifying the method of [Neurosci., 57: 747-757 (1993)]. As the assay buffer, 25 mM Tris-HCl, 0.025% BSA, pH 7.4 was used. Each test compound, [^3H]RTX 50 μl (about 50,000 dpm; Perkin Elmer Life Science, USA) and the aforementioned membrane sample (protein quantity about 25 μg) were suspended in a microplate to a total volume of 300 μl, incubated at 37° C. for 60 minutes and then incubated on ice for 10 minutes. A 200 μg/50 μl portion of an ice-cooled α1 acid glycoprotein (AGP; Sigma) was added thereto and further incubated for 5 minutes. Completion of the incubation was carried out by rapid filtration of the reaction liquid using a GF/B filter (Perkin Elmer Life Science, USA). After 7 times of washing with ice-cooled 25 mM Tris-HCl buffer (pH 7.4), radioactivity of the filter was measured by a liquid scintillation counter. Regarding the specific binding, a part substituted by 1 μM of RTX among the total binding of [^3H]RTX with the VR1 receptor stably expressing cell membrane fraction was regarded as the specific binding originated from the VR1 receptor. Evaluation of test compounds was carried out in the following manner. […]

The test system of the next assay is mouse (ddY, male). Briefly: Capsaicin test (capsaicin-induced paw-licking behavior). In kind it is in vivo. As to conditions: oral administration 45 minutes before 1.6 μg capsaicin to planta; 5 minutes observation; vehicle group = 100%. As to the method: Inhibitory action on pain behavior of the compounds as the active ingredients of the pharmaceutical preparations of the present invention was evaluated in accordance with the method described in a reference [Neuropharmacol., 31: 1279-1285 (1992)]. That is, when 1.6 μg of capsaicin is administered to a planta of a mouse (ddY, male, 4 to 5 weeks of age), it induces paw-licking behavior. The pain behavior suppressing action was evaluated by measuring the paw-licking behavior expressing time during 5 minutes after the administration. Each test compound was orally administered 45 minutes before the administration of capsaicin. Evaluation of the test compounds was carried out by calculating each inhibition rate of the test compound administration group when the paw-licking behavior expressing time of the vehicle administration group was regarded as 100%.

Assay [2] addresses T1, human VR1. Briefly: Inhibitory activity on capsaicin-induced electric current, whole cell patch clamp, VR1 receptor-expressed HEK 293 cells. In kind it is cell-based. To be noted: capsaicin 1 μM, voltage-clamped, read-out: IC50 value, inhibition of capsaicin-induced current response. As to the method:
2. Measurement of Inhibitory Activity on Capsaicin-Induced Electric Current Using VR1 Stably Expressing Cell
The VR1 receptor-expressed HEK 293 cells prepared in the aforementioned Test Example 1 were inoculated onto a poly-D-lysine-coated cover glass to a density of from 1 to 1.5×10^4 cells/cm^2. This was allowed to stand still in a CO2 incubator (37° C., 5% CO2) and used in this test after a lapse of from 3 to 15 hours.
By recording whole cell patch clamp for the VR1 receptor-expressed HEK 293 cells under a voltage-clamped condition, the current response induced by topically applying capsaicin (1 μM) to the vicinity of the cells was measured. Test compounds were dissolved in an extracellular liquid and applied to a chamber by multi-barrel. Composition (mM) of the extracellular solution was set to NaCl 145, CsCl 5, CaCl2 1, MgCl2 1, HEPES 10 and glucose 10 [pH=7.3]. Composition (mM) of the intracellular solution was set to CsCl 120, MgCl2 2, HEPES 10, BAPTA 10, Na2 GTP 0.2, Mg ATP 4 and phosphorcreatine Na2 4 [pH=7.2]. By defining the current response of capsaicin in the absence of test compound as 100% and continuously applying each test compound starting from a lower concentration, inhibition rate at each concentration was measured. The IC50 value was calculated by nonlinear recursion from respective inhibition rate.

Another assay has as its system rat (SD, male). Put plainly: Spinal nerve ligation model test (von Frey hair test). Type of assay: in vivo. To be noted: L5/L6 spinal nerve ligated rat, oral administration 60 minutes before evaluation. The protocol:
4. Spinal Nerve Ligation Model Test
Inhibitory action on pain behavior of the compounds as the active ingredients of the pharmaceutical preparations of the present invention was evaluated in accordance with the method described in a reference [Pain, 50: 355-363 (1992)]. Under pentobarbital anesthesia, the lumbar skin and muscle of a rat (SD, male, 5 to 6 weeks of age) were incised and the lumber nerve was exposed by removing the transverse process of lumbar vertebra L 6. The L 5 and L 6 spinal nerves were ligated with a silk thread and then the wound was sutured. The treatment was applied to the left side.
The drug effect evaluation was carried out after 7 to 15 days of the operation. Pain threshold for mechanical stimulus was examined by the von Frey hair (VFH) test.
Individuals having lowered pain threshold were selected in advance by the VFH test on the day before the drug effect evaluation and divided into groups in such a manner that difference in the average threshold value between respective groups becomes small.
The test compounds were orally administered 60 minutes before the drug effect evaluation. […]

Where a name gives a salt, the structure may show the parent alone.

Results on 22 compounds are retold here after US8106190B2, “2-aminobenzamide derivatives” (Astellas Pharma Inc., priority 2005, dated 2012).

T1 sequence (Q8NER1 whole entry): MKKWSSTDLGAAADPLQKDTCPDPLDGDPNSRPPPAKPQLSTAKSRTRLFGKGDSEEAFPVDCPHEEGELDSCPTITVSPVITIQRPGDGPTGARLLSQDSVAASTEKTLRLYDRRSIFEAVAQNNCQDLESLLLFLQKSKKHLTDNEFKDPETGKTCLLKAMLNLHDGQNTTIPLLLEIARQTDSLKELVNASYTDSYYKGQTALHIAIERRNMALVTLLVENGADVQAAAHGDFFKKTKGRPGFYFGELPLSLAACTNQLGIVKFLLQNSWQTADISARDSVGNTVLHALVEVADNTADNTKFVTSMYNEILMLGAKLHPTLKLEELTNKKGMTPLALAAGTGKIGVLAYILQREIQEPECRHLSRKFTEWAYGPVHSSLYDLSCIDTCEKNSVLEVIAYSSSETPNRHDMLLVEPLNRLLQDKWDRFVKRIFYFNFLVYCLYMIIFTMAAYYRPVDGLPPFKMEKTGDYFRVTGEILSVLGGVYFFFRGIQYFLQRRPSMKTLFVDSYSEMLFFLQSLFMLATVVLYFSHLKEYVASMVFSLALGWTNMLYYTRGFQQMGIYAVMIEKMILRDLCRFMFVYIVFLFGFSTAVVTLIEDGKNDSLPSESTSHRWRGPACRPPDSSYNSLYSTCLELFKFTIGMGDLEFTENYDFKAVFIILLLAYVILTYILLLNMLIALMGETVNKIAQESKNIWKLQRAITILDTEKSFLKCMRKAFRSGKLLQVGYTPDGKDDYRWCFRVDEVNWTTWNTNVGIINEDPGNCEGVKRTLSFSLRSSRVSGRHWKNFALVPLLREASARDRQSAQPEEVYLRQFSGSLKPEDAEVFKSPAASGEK

On to `Cc1nc2cc(NC(=O)c3ccc(C(F)(F)F)cc3N[C@H]3CCCC[C@@H]3N(C)C)ccc2s1` [Example 108, 2-{[(1S,2S)-2-(dimethylamino)cyclohexyl]amino}-N-(2-methyl-1,3-benzothiazol-5-yl)-4-(trifluoromethyl)benzamide hydrochloride], for which the IC50 on human VR1 [1] worked out at 0.019 µM.
On to `Cc1nc2cc(NC(=O)c3ccc(C(F)(F)F)cc3NCc3ccncc3)ccc2s1` [Example 321], for which, on human VR1 [1], the half-maximal inhibitory concentration (IC50) worked out at 0.025 µM. In addition, the “inhibition rate of paw-licking behavior expressing time” value (“inhibition rate” below) in the assay on mouse (ddY, male) stood at 67%.
As to `Cl.O=C1Cc2c(cc(NC(=O)c3ccc(C(F)(F)F)cc3N[C@H]3CCCC[C@@H]3N3CCCC3)cc2C(F)(F)F)N1` [Example 107, N-[2-oxo-4-(trifluoromethyl)-2,3-dihydro-1H-indol-6-yl]-2-{[(1S,2S)-2-pyrrolidin-1-ylcyclohexyl]amino}-4-(trifluoromethyl)benzamide hydrochloride], the values for the IC50 at human VR1 [1] and at human VR1 [2] were 0.013 µM and 0.0088 µM, respectively. The “inhibition rate” value with mouse (ddY, male) worked out at 53%. Besides, in the assay on rat (SD, male), the “pain threshold for mechanical stimulus of the operation side leg (VFH test)” value is given as “completely restored the threshold value of the operation side leg to the threshold value range of the non-operation side leg”.
On to `CC(C)CN1CCC(Nc2cc(C(F)(F)F)ccc2C(=O)Nc2ccc3c(c2)NC(=O)C3(C)C)CC1` [Example 327], for which the IC50 on human VR1 [1] was found to be 0.0037 µM.
Still for that read-out and setting: the value for `O=C(Nc1ccc2c(c1)N(CCO)C(=O)CC2)c1ccc(C(F)(F)F)cc1NC1CCCCC1` [Example 105, 2-(cyclohexylamino)-N-[1-(2-hydroxyethyl)-2-oxo-1,2,3,4-tetrahydroquinolin-7-yl]-4-(trifluoromethyl)benzamide] was 0.0042 µM.
Still for that read-out and setting: the value for `CN1C(=O)CCc2ccc(NC(=O)c3ccc(C(F)(F)F)cc3Nc3cccnc3)cc21` [Example 178] was 0.062 µM.
Regarding `CCCCCN1CC[C@H](Nc2cc(C(F)(F)F)ccc2C(=O)Nc2ccc3c(c2)NC(=O)C3(C)C)C1` [Example 334], the IC50 on human VR1 [1] worked out at 0.023 µM. Besides, the “inhibition rate” value in the assay on mouse (ddY, male) came to 58%.
The matching figures for `CN1C(=O)CCc2ccc(NC(=O)c3ccc(Cl)cc3NC3CCCC3)cc21.Cl` [Example 1, 4-chloro-2-(cyclopentylamino)-N-(1-methyl-2-oxo-1,2,3,4-tetrahydroquinolin-7-yl)benzamide hydrochloride]: 0.012 µM and 45%.
The matching figures for `CCC(CC)Nc1cc(Cl)ccc1C(=O)Nc1ccc2c(c1)N(C)C(=O)CC2` [Example 17]: 0.0058 µM and 54%.
Regarding `O=C(Nc1ccc2cccnc2c1)c1ccc(C(F)(F)F)cc1N[C@H]1CCCC[C@H]1N1CCCC1` [Example 367], the IC50 at human VR1 [1] was determined as 0.015 µM.
On the same count and under the same terms, next, `CN1C(=O)CCc2ccc(NC(=O)c3ccc(C(F)(F)F)cc3N[C@H]3CCCC[C@@H]3N3CCC(C)(C)C3)cc21` [Example 170]: 0.0026 µM.
Same read-out and setting: the value for `O=C(Nc1ccc2cccnc2c1)c1ccc(C(F)(F)F)cc1N[C@H]1CCCC[C@@H]1N1CCCC1` [Example 386] was 0.018 µM; that for `CN1C(=O)CCc2ccc(NC(=O)c3ccc(C(F)(F)F)cc3N[C@@H]3CCCC[C@H]3OCc3ccccc3)cc21` [Example 176] was 0.0089 µM.
For the compound `CN1C(=O)CCc2ccc(NC(=O)c3ccc(C(F)(F)F)cc3NC3(CN4CCCC4)CCCCC3)cc21` [Example 173], the half-inhibitory concentration (IC50) on human VR1 [1] came to 0.0056 µM.
Regarding `CC1Oc2ccc(NC(=O)c3ccc(C(F)(F)F)cc3NC3CCCCC3)cc2NC1=O` (stereo not drawn) [Example 73], the “inhibition rate” value with mouse (ddY, male) amounted to 95%.
With `CN1C(=O)CCc2ccc(NC(=O)c3cc(Cl)cnc3NCC3CC3)cc21` [Example 400], the IC50 at human VR1 [1] came to 0.06 µM.
Still for that read-out and setting: the value for `C[C@H]1Oc2ccc(NC(=O)c3ccc(Cl)cc3N[C@@H]3CCCC[C@@H]3N3CCCC3)cc2NC1=O` [Example 106, 4-chloro-N-[(2R)-2-methyl-3-oxo-3,4-dihydro-2H-benzoxazin-6-yl]-2-{[(1R,2S)-2-pyrrolidin-1-ylcyclohexyl]amino}benzamide hydrochloride] was 0.052 µM.
For `CCCCN1CCC(Nc2cc(C(F)(F)F)ccc2C(=O)Nc2ccc3c(c2)NC(=O)C3(C)C)CC1` [Example 335], the IC50 at human VR1 [1] was 0.087 µM. Moreover, in the assay with mouse (ddY, male), the “inhibition rate” value came out at 49%.
For `COCCNc1cc(C(F)(F)F)ccc1C(=O)Nc1ccc2sc(C)nc2c1` [Example 307], the IC50 on human VR1 [1] was found to be 0.0098 µM.
On the same count and under the same terms, next, `CN1C(=O)CCc2ccc(NC(=O)c3ccc(Cl)cc3NN3CCCCC3)cc21` [Example 119]: 0.045 µM.
On to `CN1C(=O)CCc2ccc(NC(=O)c3ccc(Cl)cc3N[C@H]3CCCC[C@@H]3N3CCCC3)cc21` [Example 54], for which, in the assay with mouse (ddY, male), the “inhibition rate” value stood at 34%.
For the compound `CC1(C)C(=O)Nc2cc(NC(=O)c3ccc(C(F)(F)F)cc3N[C@H]3CCCC[C@@H]3N3CCCC3)ccc21` [Example 248], the half-maximal inhibitory concentration (IC50) at human VR1 [1] amounted to 0.031 µM.
